Assay results reported in patent US20230278997A1, “BICYCLO[1.1.1]PENTANE COMPOUNDS FOR THE TREATMENT AND PROPHYLAXIS OF HEPATITIS B VIRUS INFECTION” (Hoffmann-La Roche Inc., priority 2020, published 2023).

Assay: Human microsome stability assay
Assay type: in vitro ADME
Details: 1 μM compound, 0.5 mg/mL microsomal protein, 37° C.; detection limit 6.15 mL/min/kg
Method: Human Microsome Stability Assay The human microsomal stability assay is used for early assessment of metabolic stability of a test compound in human liver microsomes. Human liver microsomes (Cat. […] The reactions were initiated by adding NADPH regenerating system. […] Following precipitation and centrifugation, the amount of compound remaining in the samples were determined by LC-MS/MS. Controls of no NADPH regenerating system at zero and 30 minutes were also prepared and analyzed.

SMILES	Clearance of human microsome
CS(=O)(=O)Cc1ncc(C(=O)NC23CC(c4nc(-c5ccc(Cl)cc5)cs4)(C2)C3)o1 [Example 5, N-[3-[4-(4-chlorophenyl)thiazol-2-yl]-1-bicyclo[1.1.1]pentanyl]-2-(methylsulfonylmethyl)oxazole-5-carboxamide]	≤6.15 mL/min/kg
CS(=O)(=O)C1(c2ccc(C(=O)NC34CC(c5nc(C6CC6)cs5)(C3)C4)o2)CC1 [Example 14, N-[3-(4-cyclopropylthiazol-2-yl)-1-bicyclo[1.1.1]pentanyl]-5-(1-methylsulfonylcyclopropyl)furan-2-carboxamide]	≤6.15 mL/min/kg
CS(=O)(=O)C1(c2ccc(C(=O)NC34CC(c5nc(C(F)(F)F)cs5)(C3)C4)o2)CC1 [Example 16, 5-(1-methylsulfonylcyclopropyl)-N-[3-[4-(trifluoromethyl)thiazol-2-yl]-1-bicyclo[1.1.1]pentanyl]furan-2-carboxamide]	≤6.15 mL/min/kg
CS(=O)(=O)C1(c2ccc(C(=O)NC34CC(c5nc(-c6ccccc6)ns5)(C3)C4)o2)CC1 [Example 17, 5-(1-methylsulfonylcyclopropyl)-N-[3-(3-phenyl-1,2,4-thiadiazol-5-yl)-1-bicyclo[1.1.1]pentanyl]furan-2-carboxamide]	≤6.15 mL/min/kg
CS(=O)(=O)C1(c2nnc(C(=O)NC34CC(c5ncc(-c6ccc(Cl)cc6)s5)(C3)C4)o2)CC1 [Example 20, N-[3-[5-(4-chlorophenyl)thiazol-2-yl]-1-bicyclo[1.1.1]pentanyl]-5-(1-methylsulfonylcyclopropyl)-1,3,4-oxadiazole-2-carboxamide]	≤6.15 mL/min/kg
CS(=O)(=O)C1(c2ccc(C(=O)NC34CC(c5nsc(-c6ccccc6)n5)(C3)C4)o2)CC1 [Example 25, 5-(1-methylsulfonylcyclopropyl)-N-[3-(5-phenyl-1,2,4-thiadiazol-3-yl)-1-bicyclo[1.1.1]pentanyl]furan-2-carboxamide]	≤6.15 mL/min/kg
CS(=O)(=O)C1(c2ccc(C(=O)NC34CC(c5nnc(-c6ccc(Cl)cc6)o5)(C3)C4)o2)CC1 [Example 28, N-[3-[5-(4-chlorophenyl)-1,3,4-oxadiazol-2-yl]-1-bicyclo[1.1.1]pentanyl]-5-(1-methylsulfonylcyclopropyl)furan-2-carboxamide]	≤6.15 mL/min/kg
CS(=O)(=O)C1(c2ccc(C(=O)NC34CC(c5cn(-c6ccc(Cl)cc6)nn5)(C3)C4)o2)CC1 [Example 29, N-[3-[1-(4-chlorophenyl)triazol-4-yl]-1-bicyclo[1.1.1]pentanyl]-5-(1-methylsulfonylcyclopropyl)furan-2-carboxamide]	≤6.15 mL/min/kg
NC(=O)c1cc(C(=O)NC23CC(c4nc(-c5ccc(Cl)cc5)no4)(C2)C3)ccn1 [Example 36, N4-[3-[3-(4-chlorophenyl)-1,2,4-oxadiazol-5-yl]-1-bicyclo[1.1.1]pentanyl]pyridine-2,4-dicarboxamide]	11.99 mL/min/kg

Other lines, results leading:

Clearance of human microsome	SMILES
≤6.15 mL/min/kg	CS(=O)(=O)C1(c2ccc(C(=O)NC34CC(c5nc(-c6ccc(Cl)nc6)cs5)(C3)C4)o2)CC1 [Example 9, N-[3-[4-(6-chloro-3-pyridyl)thiazol-2-yl]-1-bicyclo[1.1.1]pentanyl]-5-(1-methylsulfonylcyclopropyl)furan-2-carboxamide]
≤6.15 mL/min/kg	CS(=O)(=O)C1(c2ccc(C(=O)NC34CC(c5ncc(-c6ccccc6)s5)(C3)C4)o2)CC1 [Example 22, 5-(1-methylsulfonylcyclopropyl)-N-[3-(5-phenylthiazol-2-yl)-1-bicyclo[1.1.1]pentanyl]furan-2-carboxamide]
≤6.15 mL/min/kg	CS(=O)(=O)C1(c2ccc(C(=O)NC34CC(c5ncc(C6CC6)s5)(C3)C4)o2)CC1 [Example 23, N-[3-(5-cyclopropylthiazol-2-yl)-1-bicyclo[1.1.1]pentanyl]-5-(1-methylsulfonylcyclopropyl)furan-2-carboxamide]
≤6.15 mL/min/kg	CS(=O)(=O)C1(c2ccc(C(=O)NC34CC(c5ncc(Br)s5)(C3)C4)o2)CC1 [Example 24, N-[3-(5-bromothiazol-2-yl)-1-bicyclo[1.1.1]pentanyl]-5-(1-methylsulfonylcyclopropyl)furan-2-carboxamide]
≤6.15 mL/min/kg	CS(=O)(=O)C1(c2ccc(C(=O)NC34CC(c5ncc(-c6ccc(Cl)nc6)s5)(C3)C4)o2)CC1 [Example 56, N-[3-[5-(6-chloro-3-pyridyl)thiazol-2-yl]-1-bicyclo[1.1.1]pentanyl]-5-(1-methylsulfonylcyclopropyl)furan-2-carboxamide]
15.39 mL/min/kg	CS(=O)(=O)C1(c2ccc(C(=O)NC34CC(c5ncc(-c6ccc(Cl)cn6)s5)(C3)C4)o2)CC1 [Example 57, N-[3-[5-(5-chloro-2-pyridyl)thiazol-2-yl]-1-bicyclo[11.11]pentanyl]-5-(1-methylsulfonylcyclopropyl)furan-2-carboxamide]
6.89 mL/min/kg	CS(=O)(=O)C1(c2ccc(C(=O)NC34CC(c5ncc(-c6cnc(Cl)cn6)s5)(C3)C4)o2)CC1 [Example 59, N-[3-[5-(5-chloropyrazin-2-yl)thiazol-2-yl]-1-bicyclo[1.1.1]pentanyl]-5-(1-methylsulfonylcyclopropyl)furan-2-carboxamide]
